Inhibition data for 37 molecules are collected here from patent publication US20250002464A1, “NOVEL COMPOUND AND PHARMACEUTICAL COMPOSITION COMPRISING SAME” (SAPIENSBIO INC., priority 2021, published 2025).

For the assay, the system named is α-SMA. Briefly: α-SMA expression inhibitory ability in MRC5 cell line (Western blotting). Type of assay: cell-based. The settings on record: TGF-β1 (10 ng/mL), 72 hours, relative to TGF-β1 only. As for the experimental part:
Subsequently, the inhibitory effect on pulmonary fibrosis of the compounds according to the present invention was overall evaluated. An MRC5 cell line was treated with each compound at 10 μM, and 2 hours later, treated with TGF-β1 (10 ng/mL). After 72 hours, the cells were lysed using RIPA Buffer, and then an α-SMA protein level was measured through Western blotting. The α-SMA expression level when treating the cells with each compound and TGF-β1 compared to the α-SMA expression level when treating the cells only with TGF-β1 without the compound was calculated as the α-SMA expression inhibitory ability of the corresponding compound. The α-SMA expression inhibitory ability of each compound is summarized in Table 2 below (A: inhibitory ability≥70%, B: 50%: inhibitory ability<70%, C: inhibitory ability<50%).
In turn, `O=C(CN1CCCC1)N1CCN(c2ccccn2)c2ccccc21` [Compound 152] came in with an inhibition at 10 µM of at least 70%.
To `CN1CCN(CCC(=O)N2CCN(c3cccc(Cl)c3)c3ccccc32)CC1` [Compound 135, 1-(4-(3-chlorophenyl)-3,4-dihydroquinoxaline-1(2H)-yl)-3-(4-methylpiperazin-1-yl)propan-1-one] belongs at least 70%; to `CN1CCN(CCC(=O)N2CCN(Cc3cccnc3)c3ccccc32)CC1` [Compound 121, 3-(4-methylpiperazin-1-yl)-1-(4-(pyridin-3-ylmethyl)-3,4-dihydroquinoxaline-1(2H)-yl)propan-1-one], under 50%.
In turn, `C[C@@H]1CCCN1CCC(=O)N1CCN(c2ccccc2)c2ccccc21` [Compound 57, (R)-3-(2-methylpyrrolidin-1-yl)-1-(4-phenyl-3,4-dihydroquinoxaline-1(2H)-yl)propan-1-one] returned an inhibition at 10 µM of under 50%.
The molecule `O=C(CCN1CCCC(O)C1)N1CCN(c2ccccc2)c2ccccc21` (stereo not shown) [Compound 58, 3-(3-hydroxypiperidin-1-yl)-1-(4-phenyl-3,4-dihydroquinoxaline-1(2H)-yl)propan-1-one] yielded an inhibition at 10 µM of 50 to 70%.
To `CN1CCN(CCC(=O)N2CCN(Cc3cccc(Cl)c3)c3ccccc32)CC1` [Compound 98, 1-(4-(3-chlorobenzyl)-3,4-dihydroquinoxaline-1(2H)-yl)-3-(4-methylpiperazin-1-yl)propan-1-one] belongs under 50%; to `CC(C(=O)N1CCN(Cc2ccccc2)c2ccccc21)N1CCN(C)CC1` (stereo not shown) [Compound 83, 1-(4-benzyl-3,4-dihydroquinoxaline-1(2H)-yl)-2-(4-methylpiperazin-1-yl)propan-1-one], 50 to 70%; to `O=C(CCNCc1ccccn1)N1CCN(c2ccc(F)cc2)c2ccccc21` [Compound 21, 1-(4-(4-fluorophenyl)-3,4-dihydroquinoxaline-1(2H)-yl)-3-((pyridin-2-ylmethyl)amino)propan-1-one], 50 to 70%.
`O=C(CCN1CCCC1)N1CCN(Cc2ccccc2)c2ccccc21` [Compound 78, 1-(4-benzyl-3,4-dihydroquinoxaline-1(2H)-yl)-3-(pyrrolidin-1-yl)propan-1-one] showed an inhibition at 10 µM of 50 to 70%.
To `CC(C(=O)N1CCN(c2ccc(F)cc2)c2cc(F)ccc21)N1CCC[C@H]1C` (stereo partly drawn) [Compound 54, 1-(6-fluoro-4-(4-fluorophenyl)-3,4-dihydroquinoxaline-1(2H)-yl)-2-((R)-2-methylpyrrolidin-1-yl)propan-1-one] belongs under 50%; to `CC(C)CN1CCN(C(=O)CCN2CCCCC2)c2ccccc21` [Compound 169, 1-(4-isobutyl-3,4-dihydroquinoxaline-1(2H)-yl)-3-(piperidin-1-yl)propan-1-one], 50 to 70%.
For the molecule `O=C(CCN1CCCC1)N1CCN(c2ccc(F)cc2)c2ccccc21` [Compound 14, 1-(4-(4-fluorophenyl)-3,4-dihydroquinoxaline-1(2H)-yl)-3-(pyrrolidin-1-yl)propan-1-one], the inhibition at 10 µM was at least 70%.
In turn, `CC(C(=O)N1CCN(C(=O)c2ccccc2)c2ccccc21)N1CCCCC1` (stereo not shown) [Compound 200, 1-(4-benzoyl-3,4-dihydroquinoxaline-1(2H)-yl)-2-(piperidin-1-yl)propan-1-one] returned an inhibition at 10 µM of under 50%.
For `O=C(CCN1CCNCC1)N1CCN(c2ccc(F)cc2)c2ccccc21` [Compound 28, 1-(4-(4-fluorophenyl)-3,4-dihydroquinoxaline-1(2H)-yl)-3-(piperazin-1-yl)propan-1-one] the value was at least 70%; for `O=C(CCN1CCCCC1)N1CCN(c2ccc(Cl)cc2)c2ccccc21` [Compound 141, 1-(4-(4-chlorophenyl)-3,4-dihydroquinoxaline-1(2H)-yl)-3-(piperidin-1-yl)propan-1-one], 50 to 70%; for `O=C(CCN1CCN(C2CC2)CC1)N1CCN(c2ccc(F)cc2)c2cc(F)ccc21` [Compound 43, 3-(4-cyclopropylpiperazin-1-yl)-1-(6-fluoro-4-(4-fluorophenyl)-3,4-dihydroquinoxaline-1(2H)-yl)propan-1-one], under 50%.
To `CC(C(=O)N1CCN(c2ccccc2)c2ccccc21)N1CCCC1` (stereo not shown) [Compound 61, 1-(4-phenyl-3,4-dihydroquinoxaline-1(2H)-yl)-2-(pyrrolidin-1-yl)propan-1-one] belongs under 50%.
In turn, `CN1CC[C@@H](NCCC(=O)N2CCN(c3ccc(F)cc3)c3ccccc32)C1` [Compound 26, (R)-1-(4-(4-fluorophenyl)-3,4-dihydroquinoxaline-1(2H)-yl)-3-((1-methylpyrrolidin-3-yl)amino)propan-1-one] had an inhibition at 10 µM of at least 70%.
Take `CC(C(=O)N1CCN(c2ccccc2)c2ccccc21)N1CCN(C)CC1` (stereo not shown) [Compound 62, 2-(4-methylpiperazin-1-yl)-1-(4-phenyl-3,4-dihydroquinoxaline-1(2H)-yl)propan-1-one]: the inhibition at 10 µM is under 50%.
For `CC(C(=O)N1CCN(CC2CC2)c2ccccc21)N1CCCCC1` (stereo not shown) [Compound 165, 1-(4-(cyclopropylmethyl)-3,4-dihydroquinoxaline-1(2H)-yl)-2-(piperidin-1-yl)propan-1-one] the value was under 50%; for `CN1CCN(CCCN2CCN(c3ccc(F)cc3)c3ccccc32)CC1` [Compound 30, 1-(4-fluorophenyl)-4-(3-(4-methylpiperazin-1-yl)propyl)-1,2,3,4-tetrahydroquinoxaline], at least 70%.
For `O=C(CCN1CCCC1)N1CCN(c2ccc(Cl)cc2)c2ccccc21` [Compound 140, 1-(4-(4-chlorophenyl)-3,4-dihydroquinoxaline-1(2H)-yl)-3-(pyrrolidin-1-yl)propan-1-one], the inhibition at 10 µM was under 50%.
`CN1CCN(C(=O)CN2CCN(c3ccccc3)c3ccccc32)CC1` [Compound 73, 1-(4-methylpiperazin-1-yl)-2-(4-phenyl-3,4-dihydroquinoxaline-1(2H)-yl)ethan-1-one]: the inhibition at 10 µM lay in the range of 50 to 70%.
`CC(C(=O)N1CCN(c2ccccc2)c2ccccc21)N1CCN2CCCC2C1` (stereo not shown) [Compound 64, 2-(hexahydropyrrolo[1,2-a]pyrazin-2(1H)-yl)-1-(4-phenyl-3,4-dihydroquinoxaline-1(2H)-yl)propan-1-one] had an inhibition at 10 µM of under 50%.
To `CC(C)N1CCN(C(=O)CCN2CCCC2)c2ccccc21` [Compound 177, 1-(4-isopropyl-3,4-dihydroquinoxaline-1(2H)-yl)-3-(pyrrolidin-1-yl)propan-1-one] belongs under 50%; to `CN1CCN(CC(=O)N2CCN(c3ccccc3Cl)c3ccccc32)CC1` [Compound 133, 1-(4-(2-chlorophenyl)-3,4-dihydroquinoxaline-1(2H)-yl)-2-(4-methylpiperazin-1-yl)ethan-1-one], 50 to 70%.
`O=C(CCN1CCCC1)N1CCN(c2ccccc2)c2cc(F)ccc21` [Compound 1, 1-(6-fluoro-4-phenyl-3,4-dihydroquinoxaline-1(2H)-yl)-3-(pyrrolidin-1-yl)propan-1-one] returned an inhibition at 10 µM of 50 to 70%.
In turn, `CC(C(=O)N1CCN(c2ccc(F)cc2)c2ccccc21)N1CCCC1` (stereo not shown) [Compound 33, 1-(4-(4-fluorophenyl)-3,4-dihydroquinoxaline-1(2H)-yl)-2-(pyrrolidin-1-yl)propan-1-one] gave an inhibition at 10 µM of 50 to 70%.
`O=C(CCN1CCCCC1)N1CCN(Cc2ccncc2)c2ccccc21` [Compound 123, 3-(piperidin-1-yl)-1-(4-(pyridin-4-ylmethyl)-3,4-dihydroquinoxaline-1(2H)-yl)propan-1-one] showed an inhibition at 10 µM of under 50%.
Molecule `CC(C(=O)N1CCN(Cc2ccc(Cl)cc2)c2ccccc21)N1CCN(C)CC1` (stereo not shown) [Compound 110, 1-(4-(4-chlorobenzyl)-3,4-dihydroquinoxaline-1(2H)-yl)-2-(4-methylpiperazin-1-yl)propan-1-one] yielded an inhibition at 10 µM of 50 to 70%.
`CN1CC[C@H](NCCC(=O)N2CCN(c3ccc(F)cc3)c3ccccc32)C1` [Compound 27, (S)-1-(4-(4-fluorophenyl)-3,4-dihydroquinoxaline-1(2H)-yl)-3-((1-methylpyrrolidin-3-yl)amino)propan-1-one] had an inhibition at 10 µM of at least 70%.
The molecule `CN1CCN(CC(=O)N2CCN(c3cccc(Cl)c3)c3ccccc32)CC1` [Compound 139, 1-(4-(3-chlorophenyl)-3,4-dihydroquinoxaline-1(2H)-yl)-2-(4-methylpiperazin-1-yl)ethan-1-one] registered an inhibition at 10 µM of at least 70%.
For the molecule `CC(C(=O)N1CCN(c2ccccc2)c2cc(F)ccc21)N1CCCC1` (stereo not shown) [Compound 10, 1-(6-fluoro-4-phenyl-3,4-dihydroquinoxaline-1(2H)-yl)-2-(pyrrolidin-1-yl)propan-1-one], the inhibition at 10 µM was under 50%.
`CC(C(=O)N1CCN(Cc2ccccc2)c2ccccc21)N1CCCCC1` (stereo not shown) [Compound 82, 1-(4-benzyl-3,4-dihydroquinoxaline-1(2H)-yl)-2-(piperidin-1-yl)propan-1-one] returned an inhibition at 10 µM of under 50%.
Regarding `O=C(CCN1CC[C@H](O)C1)N1CCN(c2ccc(F)cc2)c2ccccc21` [Compound 23, (S)-1-(4-(4-fluorophenyl)-3,4-dihydroquinoxaline-1(2H)-yl)-3-(3-hydroxypyrrolidin-1-yl)propan-1-one], the inhibition at 10 µM is at least 70%.
In turn, `C[C@@H]1CCCCN1CCC(=O)N1CCN(c2ccccc2)c2cc(F)ccc21` [Compound 6, (R)-1-(6-fluoro-4-phenyl-3,4-dihydroquinoxaline-1(2H)-yl)-3-(2-methylpiperidin-1-yl)propan-1-one] came in with an inhibition at 10 µM of 50 to 70%.
As for `CC(C)CN1CCN(C(=O)C(C)N2CCN(C)CC2)c2ccccc21` (stereo not shown) [Compound 173, 1-(4-isobutyl-3,4-dihydroquinoxaline-1(2H)-yl)-2-(4-methylpiperazin-1-yl)propan-1-one], the inhibition at 10 µM was in the range of 50 to 70%.
